Reference: paper PMC7136958, “Targeting the pregnane X receptor using microbial metabolite mimicry” (EMBO Molecular Medicine, 2020)
Values joined by “and” are separate entries in the source; they are usually repeats but may differ in a detail not shown here. Identical values can stand only once. Like-named read-outs stand apart in the source and are kept apart here.

Legend:
AhR = biological target: T1, AhR (Homo sapiens, UniProt P35869); test: AhR reporter assay, HepG2 cells stably expressing pCYP1A1 luciferase (AZ-AHR); format: cell-based; conditions: AZ-AHR cells, fold vs DMSO; for fold induction at 24 h, 0.001 µM / fold induction at 24 h, 0.01 µM / fold induction at 24 h, 0.1 µM / fold induction at 24 h, 1 µM / fold induction at 24 h, 10 µM: human
T1 construct: endogenous in cells; host or cells: AZ-AHR (HepG2)
T1 sequence (P35869 11-848): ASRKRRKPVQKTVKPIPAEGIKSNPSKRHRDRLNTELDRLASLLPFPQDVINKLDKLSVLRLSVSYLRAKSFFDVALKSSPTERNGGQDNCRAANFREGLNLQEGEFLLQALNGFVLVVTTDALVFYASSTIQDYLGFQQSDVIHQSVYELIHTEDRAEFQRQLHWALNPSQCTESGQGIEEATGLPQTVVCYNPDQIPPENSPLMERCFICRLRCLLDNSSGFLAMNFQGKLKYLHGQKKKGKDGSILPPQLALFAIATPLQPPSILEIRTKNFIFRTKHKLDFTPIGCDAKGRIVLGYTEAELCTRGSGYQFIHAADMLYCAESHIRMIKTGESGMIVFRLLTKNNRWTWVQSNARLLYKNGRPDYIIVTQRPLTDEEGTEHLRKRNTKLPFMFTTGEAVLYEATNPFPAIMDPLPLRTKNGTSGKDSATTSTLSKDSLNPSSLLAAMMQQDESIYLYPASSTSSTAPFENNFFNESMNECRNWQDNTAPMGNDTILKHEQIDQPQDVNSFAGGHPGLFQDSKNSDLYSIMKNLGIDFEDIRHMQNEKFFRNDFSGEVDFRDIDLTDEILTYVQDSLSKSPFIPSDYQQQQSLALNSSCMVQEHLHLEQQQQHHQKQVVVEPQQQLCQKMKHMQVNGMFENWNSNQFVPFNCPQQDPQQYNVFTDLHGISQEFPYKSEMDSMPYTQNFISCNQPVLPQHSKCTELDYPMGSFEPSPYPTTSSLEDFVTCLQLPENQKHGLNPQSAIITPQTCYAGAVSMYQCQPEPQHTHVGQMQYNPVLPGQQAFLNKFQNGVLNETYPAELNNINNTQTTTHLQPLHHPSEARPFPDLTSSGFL
Procedure: Incubations were performed in four technical replicates.

PXR = biological target: T2, PXR (Homo sapiens, UniProt O75469); test: PXR reporter (p3A4-luc luciferase) assay in LS180 cells transiently transfected with wild-type PXR; conditions: for FOLD INDUCTION of PXR reporter luciferase activity: 24 h, over UT; for fold induction at 0.001 µM / fold induction at 0.01 µM / fold induction at 0.1 µM / fold induction at 1 µM / fold induction at 10 µM / fold induction at 25 µM: LS180, read-out: FOLD INDUCTION of PXR reporter luciferase activity
T2 sequence (O75469 1-434): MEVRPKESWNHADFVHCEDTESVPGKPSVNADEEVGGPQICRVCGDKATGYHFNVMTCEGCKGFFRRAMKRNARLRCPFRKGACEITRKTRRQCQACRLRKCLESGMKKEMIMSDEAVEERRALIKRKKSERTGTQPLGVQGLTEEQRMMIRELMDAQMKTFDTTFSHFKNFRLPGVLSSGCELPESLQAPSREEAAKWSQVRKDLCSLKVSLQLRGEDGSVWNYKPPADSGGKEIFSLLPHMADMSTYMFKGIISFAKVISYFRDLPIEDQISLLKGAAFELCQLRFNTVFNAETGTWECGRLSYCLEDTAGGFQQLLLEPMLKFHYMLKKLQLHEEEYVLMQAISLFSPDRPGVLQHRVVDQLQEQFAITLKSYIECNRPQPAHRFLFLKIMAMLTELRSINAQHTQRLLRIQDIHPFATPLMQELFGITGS
Procedure: Incubations were performed in four technical replicates. After the treatments, cells were lysed and luciferase activity was measured on Tecan Infinite M200 Pro plate reader (Schoeller Instruments, Prague, Czech Republic). The data are expressed as fold induction ± SD of luciferase activity over the control cells (agonistic mode—in the absence of a model ligand) or as a percentage of maximal activation ± SD (antagonistic mode—in the presence of a model ligand). […] For all the transfection experiments, specifically multiplexed transfections, the control wells were mock‐transfected ([…]). However, to exclude non‐specific binding of PXR (or other factors) upstream of the luciferase gene within non‐PXR‐binding elements, we performed pilot experiments in different cell passages (P11, P14, and P17) of LS174T cells using a mock luciferase plasmid (luciferase not containing an upstream PXR‐binding element of the CYP3A4 promoter).

[1] = tested on: ABCC2, UGT1A1, ABCB1, CYP3A4, GSTA1 mRNA; test: PXR target gene mRNA in human duodenal enteroids; conditions: for ABCB1 (MDR1) mRNA fold change, Mean / ABCC2 mRNA fold change, Mean / CYP3A4 mRNA fold change, Mean / GSTA1 mRNA fold change, Mean / UGT1A1 mRNA fold change, Mean: 10 μM, 24 h, n=3
Procedure: Discarded duodenum tissue after surgery was obtained and used to isolate crypts. Embedded crypts in Matrigel formed 3D structures referred to as “enteroids”. […] DMSO was added to enteroids as a negative control. After incubation for 24 h, enteroids were collected in RNA‐free tube followed by breaking down Matrigel by pipetting vigorously (using 1 ml PBS). The enteroids were pelleted at 16,000 g for 3 min (4°C). RNA was extracted using miRNA isolation kit (Invitrogen; #AM1561) using the protocol provided by Invitrogen. […] PowerUp SYBR Green (Applied Biosystem, #A25742) was used for RT–PCR and performed 40 cycles using Quant Studio3 (Invitrogen, #A28132).

[2] = tested on: CYP1A1, CYP3A4, MDR1 mRNA in HepaRG cells
Procedure: Caco‐2 cells were purchased from ATCC, and authenticity was validated by multiplexed STR DNA (short tandem repeat deoxyribonucleic acid) profiling performed by Genetica. […] Cells were maintained at 37°C and 5% CO2 in a humidified incubator. […] Three HepaRG™‐derived cell lines, including 5F Clone control cells, and cells with targeted functional PXR and AhR gene knockouts, PXR‐KO and AhR‐KO, respectively, were purchased from Sigma (Czech Republic). Cells were handled according to the manufacturer's protocol. Human hepatocytes were purchased from Biopredic International (France) and Triangle Research Labs, LLC, Lonza (USA). Cultures were maintained in serum‐free medium at 37°C and 5% CO2 in a humidified incubator.
The measurements were performed in triplicate.

hPXR = biological target: T3, hPXR (Homo sapiens, UniProt O75469); test: biochemical
T3 sequence (O75469 111-434 limits assumed): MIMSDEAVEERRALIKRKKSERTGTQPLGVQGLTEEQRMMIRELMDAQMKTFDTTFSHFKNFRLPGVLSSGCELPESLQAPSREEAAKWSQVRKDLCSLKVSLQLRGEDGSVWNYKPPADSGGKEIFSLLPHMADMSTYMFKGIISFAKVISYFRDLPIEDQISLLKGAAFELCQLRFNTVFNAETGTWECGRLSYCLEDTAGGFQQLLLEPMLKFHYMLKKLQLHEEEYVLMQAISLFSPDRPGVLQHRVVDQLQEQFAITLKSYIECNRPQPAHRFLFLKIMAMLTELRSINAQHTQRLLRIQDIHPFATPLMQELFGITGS
Procedure: All PXR‐binding assays were performed as two independent experiments, each with a minimum of four replicates. Final IC50 was obtained by processing the data with GraphPad Prism 6 using standard curve interpolation (sigmoidal, 4PL, variable slope).

Row | SMILES | aver (mean luciferase signal of H1-H4) (PXR; 1 nM) | aver (mean luciferase signal of H1-H4) (PXR; 10 nM) | aver (mean luciferase signal of H1-H4) (PXR; 100 nM) | aver (mean luciferase signal of H1-H4) (PXR; 1 uM) | aver (mean luciferase signal of H1-H4) (PXR; 10 uM) | aver (mean luciferase signal of H1-H4) (PXR; 25 uM) | fold induction at 24 h, 0.001 µM (AhR; 1 nM) | fold induction at 24 h, 0.01 µM (AhR; 10 nM) | fold induction at 24 h, 0.1 µM (AhR; 100 nM) | fold induction at 24 h, 1 µM (AhR; 1µM) | fold induction at 24 h, 10 µM (AhR; 10 µM) | PXR target gene induction (in words) [1] | ABCB1 (MDR1) mRNA fold change, Mean [1] [fold] | ABCC2 mRNA fold change, Mean [1] [fold] | CYP3A4 mRNA fold change, Mean [1] [fold] | GSTA1 mRNA fold change, Mean [1] [fold] | UGT1A1 mRNA fold change, Mean [1] [fold] | CYP1A1 mRNA induction [2] | CYP1A1 (1A1) mRNA, fold to C ([2]; human, 24 h) [fold] | CYP3A4 (3A4) mRNA, fold to C ([2]; human, 24 h) [fold] | also measured
1 | O=S(=O)(c1ccccc1)n1c(C(O)c2ccncc2)cc2ccccc21 (racemic) [FKK1] | 3470.0 | 3768.8 | 3738.8 | 28708.8 | 56319.0 | 51971.3 |  |  |  |  |  |  |  |  |  |  |  |  |  |  | FOLD INDUCTION (AZ-AHR luciferase) (AhR; 1 nM): 0.7 fold; FOLD INDUCTION (AZ-AHR luciferase) (AhR; 10 nM): 0.746 fold; FOLD INDUCTION (AZ-AHR luciferase) (AhR; 100 nM): 1.1 fold; FOLD INDUCTION (AZ-AHR luciferase) (AhR; 1µM): 0.9 fold; FOLD INDUCTION (AZ-AHR luciferase) (AhR; 10 µM): 2.8 fold; FOLD INDUCTION of PXR reporter luciferase activity (PXR; 1 nM): 1.6 fold; FOLD INDUCTION of PXR reporter luciferase activity (PXR; 10 nM): 1.8 fold; FOLD INDUCTION of PXR reporter luciferase activity (PXR; 100 nM): 1.7 fold; FOLD INDUCTION of PXR reporter luciferase activity (PXR; 1 uM): 13.4 fold; FOLD INDUCTION of PXR reporter luciferase activity (PXR; 10 uM): 26.3 fold; FOLD INDUCTION of PXR reporter luciferase activity (PXR; 25 uM): 24.3 fold
2 | O=C(c1ccncc1)c1cc2ccccc2n1S(=O)(=O)c1ccccc1 [FKK5, (1-(phenylsulfonyl)-1H-indol-2-yl)(pyridin-4-yl)methanone] | 4417.0 | 4539.3 | 4741.5 | 29157.3 | 116028.0 | 119010.3 | 0.755 | 0.8 | 0.7 | 0.7 | 1.2 | significantly induced | 2.409 | 4.345 | 2.034 | 4.61 | 1.773 | did not induce | 0.81 | 1.92 | CYP3A4 mRNA induction [2]: HepaRG™ AhR‐KO cells; MDR1 mRNA fold to C ([2]; human, 24 h): 1.03 fold; MDR-1 mRNA fold to C ([2]; human, 24 h): 1.25 fold; MDR-1 mRNA, fold to C ([2]; human, 24 h): 0.96 fold; fold induction at 0.001 µM (PXR): 1.4; fold induction at 0.01 µM (PXR): 1.4; fold induction at 0.1 µM (PXR): 1.5; fold induction at 1 µM (PXR): 9.1; fold induction at 10 µM (PXR): 36.4; fold induction at 25 µM (PXR): 37.3; IC50 (hPXR): 3.77 µM
3 | C#CCC(O)(c1ccncc1)c1cc2ccccc2n1S(=O)(=O)c1ccccc1 (centres unmarked) [FKK6] | 5692.0 | 9322.0 | 9089.3 | 73854.3 | 113299.3 | 99812.0 | 0.8 | 0.7 | 0.8 | 1.1 | 3.2 | significantly induced | 3.883 | 4.029 | 1.665 | 1.768 | 2.472 | did not induce | 8.33 | 2.91 | MDR-1 mRNA fold to C ([2]; HepaRG AHR-KO, normalised to GAPDH, fold vs UT): 1.31 fold; CYP3A4 mRNA induction ([2]; human, 24 h): only in HepaRG™ control 5F clone; MDR1 mRNA fold to C ([2]; human, 24 h): 1.04 fold; MDR-1 mRNA, fold to C ([2]; human, 24 h): 0.98 fold; fold induction at 0.001 µM (PXR): 1.8; fold induction at 0.01 µM (PXR): 2.9; fold induction at 0.1 µM (PXR): 2.8; fold induction at 1 µM (PXR): 23.1; fold induction at 10 µM (PXR): 35.5; fold induction at 25 µM (PXR): 31.3; PXR activation (in words) (PXR; cell-based transactivation): activated human PXR; IC50 (hPXR): 1.56 µM and ~1.56 µM
